Reference: PubChem BioAssay AID1963874 (Molecular Pharmacology Branch, DTP, NCI, 2024)

Test system: 253994-281-T-J1-PDC KRAS-mutant spheroids with HUVEC/MSC, viability
Assay: Anticancer human tumor 253994-281-T-J1-PDC patient-derived colorectal carcinoma cell line growth inhibition [KRAS2]
Settings: for IC50: curve of first compound; for viability, T/C: stronger effect = lower value
Outline: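 KRAS-mutant tumor cells were grown as spheroids with HUVEC endothelial cells and human MSCs as stroma. Targeted agents were tested alone and with KRAS pathway inhibitors. Doses started at or near clinical Cmax, or 10 microM, descending half-log.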

[1] = second compound 0.0316 µM, first compound 0.0316 µM
[2] = second compound 0.0316 µM, first compound 0.1 µM
[3] = second compound 0.1 µM, first compound 0.0316 µM
[4] = second compound 0.1 µM, first compound 0.1 µM
[5] = second compound 0.316 µM, first compound 0.0316 µM
[6] = second compound 0.316 µM, first compound 0.1 µM
[7] = second compound 1 µM, first compound 0.0316 µM
[8] = second compound 1 µM, first compound 0.1 µM
[9] = second compound 3.16 µM, first compound 0.0316 µM
[10] = second compound 3.16 µM, first compound 0.1 µM
[11] = second compound 0.1 µM, first compound 0.316 µM
[12] = second compound 0.1 µM, first compound 1 µM
[13] = second compound 0.1 µM, first compound 3.16 µM
[14] = second compound 0.1 µM, first compound 10 µM
[15] = second compound 0.316 µM, first compound 0.316 µM
[16] = second compound 0.316 µM, first compound 1 µM
[17] = second compound 0.316 µM, first compound 3.16 µM
[18] = second compound 0.316 µM, first compound 10 µM
[19] = second compound 1 µM, first compound 0.316 µM
[20] = second compound 1 µM, first compound 1 µM
[21] = second compound 1 µM, first compound 3.16 µM
[22] = second compound 1 µM, first compound 10 µM
[23] = second compound 3.16 µM, first compound 0.316 µM
[24] = second compound 3.16 µM, first compound 1 µM
[25] = second compound 3.16 µM, first compound 3.16 µM
[26] = second compound 3.16 µM, first compound 10 µM
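Also: spheroids exposed to agents for seven days before readout.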
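For viability, T/C in this document: percent of DMSO vehicle control viability.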

For `CC(C)n1nc(-c2ccc3oc(N)nc3c2)c2c(N)ncnc21` + C=CC(=O)N1CCN(c2nc(OCC3CCCN3C)nc3c2CCN(c2cccc4cccc(C)c24)C3)CC1CC#N, the IC50 (second compound 0.0316 µM) was over 0.1 µM, the IC50 (second compound 0.1 µM) was over 0.1 µM and the IC50 (second compound 0.316 µM) was over 0.1 µM. It also gave an IC50 (second compound 1 µM) of over 0.1 µM, an IC50 (second compound 3.16 µM) of 0.000686 µM and a viability, T/C (second compound 0.0316 µM, first compound 0.000316 µM) of 97.5%. The viability, T/C (second compound 0.0316 µM, first compound 0.001 µM) was 90.1%, the viability, T/C (second compound 0.0316 µM, first compound 0.00316 µM) was 80.2% and the viability, T/C (second compound 0.0316 µM, first compound 0.01 µM) was 82.7%. The viability, T/C [1] was 84%, the viability, T/C [2] was 54.7% and the viability, T/C (second compound 0.1 µM, first compound 0.000316 µM) was 95.6%. The viability, T/C (second compound 0.1 µM, first compound 0.001 µM) was 88.8%, the viability, T/C (second compound 0.1 µM, first compound 0.00316 µM) was 89.1% and the viability, T/C (second compound 0.1 µM, first compound 0.01 µM) was 86.8%. For the same compound, the viability, T/C [3] was 85.8%, the viability, T/C [4] was 58.4% and the viability, T/C (second compound 0.316 µM, first compound 0.000316 µM) was 95.4%. For the same compound, the viability, T/C (second compound 0.316 µM, first compound 0.001 µM) was 96.7%, the viability, T/C (second compound 0.316 µM, first compound 0.00316 µM) was 85.2% and the viability, T/C (second compound 0.316 µM, first compound 0.01 µM) was 81.6%. For the same compound, the viability, T/C [5] was 68.7%, the viability, T/C [6] was 55% and the viability, T/C (second compound 1 µM, first compound 0.000316 µM) was 106%. It also gave a viability, T/C (second compound 1 µM, first compound 0.001 µM) of 89.9%, a viability, T/C (second compound 1 µM, first compound 0.00316 µM) of 79.1% and a viability, T/C (second compound 1 µM, first compound 0.01 µM) of 77.4%. For the same compound, the viability, T/C [7] was 68.5%, the viability, T/C [8] was 54% and the viability, T/C (second compound 3.16 µM, first compound 0.000316 µM) was 73.4%. The viability, T/C (second compound 3.16 µM, first compound 0.001 µM) was 25.1%, the viability, T/C (second compound 3.16 µM, first compound 0.00316 µM) was 56.7% and the viability, T/C (second compound 3.16 µM, first compound 0.01 µM) was 17%. For the same compound, the viability, T/C [9] was 62.4% and the viability, T/C [10] was 31.6%.

Compound `CC1(C)CCC(CN2CCN(c3ccc(C(=O)NS(=O)(=O)c4ccc(NCC5CCOCC5)c([N+](=O)[O-])c4)c(Oc4cnc5[nH]ccc5c4)c3)CC2)=C(c2ccc(Cl)cc2)C1` + C=CC(=O)N1CCN(c2nc(OCC3CCCN3C)nc3c2CCN(c2cccc4cccc(C)c24)C3)CC1CC#N has an IC50 (second compound 0.0316 µM) of over 10 µM, an IC50 (second compound 0.1 µM) of 6.52 µM and an IC50 (second compound 0.316 µM) of 8.92 µM. It also gave an IC50 (second compound 1 µM) of 4.9 µM, an IC50 (second compound 3.16 µM) of under 0.0316 µM and a viability, T/C [1] of 110%. For the same compound, the viability, T/C [2] was 98.6%, the viability, T/C (second compound 0.0316 µM, first compound 0.316 µM) was 102% and the viability, T/C (second compound 0.0316 µM, first compound 1 µM) was 90.6%. The viability, T/C (second compound 0.0316 µM, first compound 3.16 µM) was 84.5%, the viability, T/C (second compound 0.0316 µM, first compound 10 µM) was 56.7% and the viability, T/C [3] was 96.9%. For the same compound, the viability, T/C [4] was 89%, the viability, T/C [11] was 87.4% and the viability, T/C [12] was 90.2%. For the same compound, the viability, T/C [13] was 64.8%, the viability, T/C [14] was 41.2% and the viability, T/C [5] was 102%. It also gave a viability, T/C [6] of 99.2%, a viability, T/C [15] of 95.6% and a viability, T/C [16] of 92.8%. The viability, T/C [17] was 87.1%, the viability, T/C [18] was 45.7% and the viability, T/C [7] was 83.6%. The viability, T/C [8] was 94.5%, the viability, T/C [19] was 91.7% and the viability, T/C [20] was 79.3%. The viability, T/C [21] was 64.3%, the viability, T/C [22] was 27.8% and the viability, T/C [9] was 18.6%. For the same compound, the viability, T/C [10] was 25.2%, the viability, T/C [23] was 22% and the viability, T/C [24] was 9.94%. For the same compound, the viability, T/C [25] was 0.66% and the viability, T/C [26] was 0.3%.

`CCNC(=O)CC1N=C(c2ccc(Cl)cc2)c2cc(OC)ccc2-n2c(C)nnc21` (stereo not given) + CC1OCC2(CCN(c3cnc(Sc4ccnc(N)c4Cl)c(N)n3)CC2)C1N gave an IC50 (second compound 0.1 µM) of over 10 µM, an IC50 (second compound 0.316 µM) of over 10 µM and an IC50 (second compound 1 µM) of 3.86 µM. The IC50 (second compound 3.16 µM) was 0.648 µM, the IC50 (second compound 10 µM) was 0.0637 µM and the viability, T/C [3] was 90.4%. It also gave a viability, T/C [4] of 100%, a viability, T/C [11] of 86.5% and a viability, T/C [12] of 82%. For the same compound, the viability, T/C [13] was 74.2%, the viability, T/C [14] was 67% and the viability, T/C [5] was 85.2%. The viability, T/C [6] was 81.3%, the viability, T/C [15] was 75.5% and the viability, T/C [16] was 65%. The viability, T/C [17] was 74%, the viability, T/C [18] was 65% and the viability, T/C [7] was 80%. The viability, T/C [8] was 79.9%, the viability, T/C [19] was 79% and the viability, T/C [20] was 64.1%. It also gave a viability, T/C [21] of 54.6%, a viability, T/C [22] of 35.1% and a viability, T/C [9] of 61.5%. The viability, T/C [10] was 78%, the viability, T/C [23] was 61.5% and the viability, T/C [24] was 40.9%. The viability, T/C [25] was 34.9%, the viability, T/C [26] was 23.1% and the viability, T/C (second compound 10 µM, first compound 0.0316 µM) was 52.8%. It also gave a viability, T/C (second compound 10 µM, first compound 0.1 µM) of 47.6%, a viability, T/C (second compound 10 µM, first compound 0.316 µM) of 43.5% and a viability, T/C (second compound 10 µM, first compound 1 µM) of 36.4%. The viability, T/C (second compound 10 µM, first compound 3.16 µM) was 26.6% and the viability, T/C (second compound 10 µM, first compound 10 µM) was 16.5%.
